Reference: patent US11180474B2 (BRISTOL-MYERS SQUIBB COMPANY, priority 2016, dated 2021)
Counter-ions that a name gives are not always drawn.

What was measured:
[1] = biological target: T1, human TLR7 (Homo sapiens, UniProt Q9NYK1); test: TLR7 inhibition reporter assay (HEK-Blue cells, SEAP reporter, gardiquimod stimulation); format: cell-based; details: HEK-Blue cells overexpressing human TLR7, gardiquimod 7.5 μM
T1 construct: host or cells: HEK-Blue cells
T1 sequence (Q9NYK1 27-1049): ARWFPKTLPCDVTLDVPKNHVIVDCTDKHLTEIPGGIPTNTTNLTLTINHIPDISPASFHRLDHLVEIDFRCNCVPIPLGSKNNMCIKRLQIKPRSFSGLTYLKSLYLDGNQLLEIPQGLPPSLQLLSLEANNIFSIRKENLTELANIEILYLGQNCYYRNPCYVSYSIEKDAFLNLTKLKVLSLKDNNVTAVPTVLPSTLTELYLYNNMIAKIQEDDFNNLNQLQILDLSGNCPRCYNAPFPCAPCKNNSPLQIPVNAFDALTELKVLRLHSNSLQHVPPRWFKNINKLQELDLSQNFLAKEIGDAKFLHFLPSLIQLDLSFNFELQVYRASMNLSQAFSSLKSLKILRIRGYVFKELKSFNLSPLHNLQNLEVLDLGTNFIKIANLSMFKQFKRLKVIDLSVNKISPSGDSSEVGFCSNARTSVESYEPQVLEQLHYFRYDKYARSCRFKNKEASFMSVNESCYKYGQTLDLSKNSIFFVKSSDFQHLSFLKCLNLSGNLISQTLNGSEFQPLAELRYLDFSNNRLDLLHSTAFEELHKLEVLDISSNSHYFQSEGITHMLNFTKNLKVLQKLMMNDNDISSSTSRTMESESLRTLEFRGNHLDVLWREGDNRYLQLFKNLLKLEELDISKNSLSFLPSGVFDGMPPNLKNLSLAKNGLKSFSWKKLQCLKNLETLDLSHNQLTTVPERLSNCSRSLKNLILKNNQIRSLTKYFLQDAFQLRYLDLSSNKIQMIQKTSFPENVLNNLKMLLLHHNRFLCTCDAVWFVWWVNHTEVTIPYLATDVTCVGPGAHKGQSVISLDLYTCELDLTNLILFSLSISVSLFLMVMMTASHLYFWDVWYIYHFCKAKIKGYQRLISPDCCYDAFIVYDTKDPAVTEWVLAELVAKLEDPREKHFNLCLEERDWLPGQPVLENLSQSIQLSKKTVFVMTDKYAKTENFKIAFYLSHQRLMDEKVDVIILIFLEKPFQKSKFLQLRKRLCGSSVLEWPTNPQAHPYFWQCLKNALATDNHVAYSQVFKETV
Procedure, shortened: (§1)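 In this cell reporter format, test compounds at 0.05 nM-50 μM final incubate 22 h with seeded cells (TLR7 15000, TLR8 20,000 per well). SEAP read-out by HEK-Blue Detection medium yields % inhibition relative to agonist/DMSO and known-inhibitor wells.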

[2] = biological target: T2, human TLR8 (Homo sapiens, UniProt Q9NR97); test: TLR8 inhibition reporter assay (HEK-Blue cells, SEAP reporter, R848 stimulation); format: cell-based; details: HEK-Blue cells overexpressing human TLR8, R848 15.9 μM
T2 construct: host or cells: HEK-Blue cells
T2 sequence (Q9NR97 27-1041): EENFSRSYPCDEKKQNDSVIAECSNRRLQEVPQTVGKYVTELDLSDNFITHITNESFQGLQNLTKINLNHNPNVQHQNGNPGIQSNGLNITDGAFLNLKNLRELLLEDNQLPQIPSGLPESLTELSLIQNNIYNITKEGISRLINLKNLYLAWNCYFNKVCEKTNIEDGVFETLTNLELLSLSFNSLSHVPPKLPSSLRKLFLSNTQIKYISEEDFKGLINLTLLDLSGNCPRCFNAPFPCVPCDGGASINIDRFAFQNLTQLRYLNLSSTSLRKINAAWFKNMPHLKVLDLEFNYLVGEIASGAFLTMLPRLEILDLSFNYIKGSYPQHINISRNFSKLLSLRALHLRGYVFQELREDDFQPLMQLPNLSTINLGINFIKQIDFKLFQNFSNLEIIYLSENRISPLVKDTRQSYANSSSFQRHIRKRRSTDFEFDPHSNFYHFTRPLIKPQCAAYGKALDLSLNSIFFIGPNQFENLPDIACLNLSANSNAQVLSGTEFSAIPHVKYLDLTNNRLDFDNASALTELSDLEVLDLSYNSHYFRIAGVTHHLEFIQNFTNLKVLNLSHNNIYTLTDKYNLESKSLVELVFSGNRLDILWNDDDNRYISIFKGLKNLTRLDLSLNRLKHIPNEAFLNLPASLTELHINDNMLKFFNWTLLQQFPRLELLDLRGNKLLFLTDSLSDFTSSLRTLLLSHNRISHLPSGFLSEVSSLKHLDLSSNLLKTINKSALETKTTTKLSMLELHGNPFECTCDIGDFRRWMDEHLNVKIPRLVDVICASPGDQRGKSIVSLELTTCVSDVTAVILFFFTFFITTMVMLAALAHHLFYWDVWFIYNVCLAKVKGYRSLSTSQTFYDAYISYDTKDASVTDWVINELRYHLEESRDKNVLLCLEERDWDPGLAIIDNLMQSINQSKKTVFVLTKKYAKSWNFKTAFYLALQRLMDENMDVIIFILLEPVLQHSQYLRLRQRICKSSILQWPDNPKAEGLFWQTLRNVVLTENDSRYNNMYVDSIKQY
Procedure, shortened: as §1

Row | Compound | IC50 [1] | IC50 [2]
1 | COc1ccc(-c2[nH]c3ccc(C4CCNCC4)cc3c2C(C)C)cc1OC [Example 194, 2-(3,4-dimethoxyphenyl)-3-isopropyl-5-(piperidin-4-yl)-1H-indole hydrochloride] | 73 nM | 54 nM
2 | COc1ccc(-c2[nH]c3ccc(C4CCN(C5CCN(CC6CC6)CC5)CC4)cc3c2C(C)C)cc1OC [Example 198, 5-(1′-(cyclopropylmethyl)-[1,4′-bipiperidin]-4-yl)-2-(3,4-dimethoxyphenyl)-3-isopropyl-1H-indole di trifluoroacetic acid] | 379 nM | 22 nM
3 | COc1ccc(-c2[nH]c3ccc(C4CCN(C5CCN(CC(C)C)CC5)CC4)cc3c2C(C)C)cc1OC [Example 199, 2-(3,4-dimethoxyphenyl)-5-(1′-isobutyl-[1,4′-bipiperidin]-4-yl)-3-isopropyl-1H-indole] | 120 nM | 19 nM
4 | COc1ccc(-c2[nH]c3ccc(C4CCN(C5CCN(C)CC5)CC4)cc3c2C(C)C)cc1OC [Example 200, 2-(3,4-dimethoxyphenyl)-3-isopropyl-5-(1′-methyl-[1,4′-bipiperidin]-4-yl)-1H-indole] | 101 nM | 27 nM
5 | COc1ccc(-c2[nH]c3ccc(C4CCN(C5CCN(C(C)C)CC5)CC4)cc3c2C(C)C)cc1OC [Example 201, 2-(3,4-dimethoxyphenyl)-3-isopropyl-5-(1′-isopropyl-[1,4′-bipiperidin]-4-yl)-1H-indole] | 119 nM | 17 nM
6 | COc1ccc(-c2[nH]c3ccc(C4CCN(C5CCN(C6CCCC6)CC5)CC4)cc3c2C(C)C)cc1OC [Example 202, 5-(1′-cyclopentyl-[1,4′-bipiperidin]-4-yl)-2-(3,4-dimethoxyphenyl)-3-isopropyl-1H-indole] | 155 nM | 13 nM
7 | CCN(CC)C(=O)CN(C)CC(=O)N1CCC(c2ccc3[nH]c(-c4ccc(OC)c(OC)c4)c(C(C)C)c3c2)CC1 [Example 203, 2-((2-(4-(2-(3,4-dimethoxyphenyl)-3-isopropyl-1H-indol-5-yl)piperidin-1-yl)-2-oxoethyl)(methyl)amino)-N,N-diethylacetamide, TFA] | 128 nM | 286 nM
8 | CCN(CC)C(=O)CCN(C)CC(=O)N1CCC(c2ccc3[nH]c(-c4ccc(OC)c(OC)c4)c(C(C)C)c3c2)CC1 [Example 204, 3-((2-(4-(2-(3,4-dimethoxyphenyl)-3-isopropyl-1H-indol-5-yl)piperidin-1-yl)-2-oxoethyl)(methyl)amino)-N,N-diethylpropanamide] | 160 nM | 112 nM
9 | COc1ccc(-c2[nH]c3cc(C)c(C4CCNCC4)cc3c2C(C)C)cc1OC [Example 205, 2-(3,4-dimethoxyphenyl)-3-isopropyl-6-methyl-5-(piperidin-4-yl)-1H-indole] | 2370 nM | 6870 nM
10 | COc1ccc(-c2[nH]c3cc(C)c(C4CCN(C5CCN(C(C)C)CC5)CC4)cc3c2C(C)C)cc1OC [Example 206, 2-(3,4-dimethoxyphenyl)-3-isopropyl-5-(1′-isopropyl-[1,4′-bipiperidin]-4-yl)-6-methyl-1H-indole di trifluoroacetic acid] | 3570 nM | 14500 nM
11 | CNCCN1CCC(c2cc3c(C(C)C)c(-c4ccc(OC)c(OC)c4)[nH]c3cc2C)CC1 [Example 207, 2-(4-(2-(3,4-dimethoxyphenyl)-3-isopropyl-6-methyl-1H-indol-5-yl)piperidin-1-yl)-N-methylethan-1-amine] | 7300 nM | 46900 nM
12 | CNCCN1CCC(c2cc3c(C(C)C)c(-c4ccc(OC)c(OC)c4)[nH]c3cc2F)CC1 [Example 208, 2-(4-(2-(3,4-dimethoxyphenyl)-6-fluoro-3-isopropyl-1H-indol-5-yl)piperidin-1-yl)-N-methylethan-1-amine] | 9 nM | 35 nM

The next lines start with the values.

Row | IC50 [1] | IC50 [2] | Compound
13 | 113 nM | 25 nM | COc1ccc(-c2[nH]c3ccc(C4CCN(C5CCNCC5)CC4)cc3c2C(C)C)cc1OC [Example 197, 5-([1,4′-bipiperidin]-4-yl)-2-(3,4-dimethoxyphenyl)-3-isopropyl-1H-indole dihydrochloride]
14 | 12 nM | 24 nM | COc1ccc(-c2[nH]c3ccc(C4CCN(C(=O)CN(C)C)CC4)cc3c2C(C)C)cc1OC [Example 209, 1-(4-(2-(3,4-dimethoxyphenyl)-3-isopropyl-1H-indol-5-yl)piperidin-1-yl)-2-(dimethylamino)ethan-1-one]
15 | 13 nM | 25 nM | COc1ccc(-c2[nH]c3ccc(C4CCN(C(=O)CNCC(C)O)CC4)cc3c2C(C)C)cc1OC (stereo not drawn) [Example 210, 1-(4-(2-(3,4-dimethoxyphenyl)-3-isopropyl-1H-indol-5-yl)piperidin-1-yl)-2-((2-hydroxypropyl)amino)ethan-1-one]
16 | 14 nM | 25 nM | COc1ccc(-c2[nH]c3ccc(C4CCN(C(=O)CN5CCC(N6CCCCC6)CC5)CC4)cc3c2C(C)C)cc1OC [Example 211, 2-([1,4′-bipiperidin]-1′-yl)-1-(4-(2-(3,4-dimethoxyphenyl)-3-isopropyl-1H-indol-5-yl)piperidin-1-yl)ethan-1-one]
17 | 13 nM | 20 nM | COc1ccc(-c2[nH]c3ccc(C4CCN(C(=O)CNCCO)CC4)cc3c2C(C)C)cc1OC [Example 212, 1-(4-(2-(3,4-dimethoxyphenyl)-3-isopropyl-1H-indol-5-yl)piperidin-1-yl)-2-((2-hydroxyethyl)amino)ethan-1-one]
18 | 31 nM | 18 nM | COc1ccc(-c2[nH]c3ccc(C4CCN(C(=O)CNC5(CO)CCCC5)CC4)cc3c2C(C)C)cc1OC [Example 213, 1-(4-(2-(3,4-dimethoxyphenyl)-3-isopropyl-1H-indol-5-yl)piperidin-1-yl)-2-((1-(hydroxymethyl)cyclopentyl)amino)ethan-1-one]
19 | 21 nM | 256 nM | COc1ccc(-c2[nH]c3ccc(C4CCN(C(=O)CNCC#N)CC4)cc3c2C(C)C)cc1OC [Example 214, 2-((2-(4-(2-(3,4-dimethoxyphenyl)-3-isopropyl-1H-indol-5-yl)piperidin-1-yl)-2-oxoethyl)amino) acetonitrile]
20 | 36 nM | 163 nM | COc1ccc(-c2[nH]c3ccc(C4CCN(C(=O)CNC5CCC(N(C)C)CC5)CC4)cc3c2C(C)C)cc1OC (stereo not drawn) [Example 215, 1-(4-(2-(3,4-dimethoxyphenyl)-3-isopropyl-1H-indol-5-yl)piperidin-1-yl)-2-((4-(dimethylamino)cyclohexyl)amino)ethan-1-one]
21 | 409 nM | 379 nM | COc1ccc(-c2[nH]c3ccc(C4CCN(C(=O)CNC56CC7CC(CC(C7)C5)C6)CC4)cc3c2C(C)C)cc1OC [Example 217, 2-(((3s,5s,7s)-adamantan-1-yl)amino)-1-(4-(2-(3,4-dimethoxyphenyl)-3-isopropyl-1H-indol-5-yl)piperidin-1-yl)ethan-1-one]
